Where “and” joins values, the source holds several entries; their conditions need not be identical. Identical values can stand only once.
What was measured:
[1] = mouse, in vivo
U87 flank xenografts = test system: U87 flank xenografts; parameters: species or system mice; details: mouse, in vivo
[2] = cited from earlier work; for Peak Abs.: peak absorbance wavelength of exemplary fluorescent reporter molecule; for Peak Em.: peak emission wavelength of exemplary fluorescent reporter molecule
CD-1 mice = assay: Activity level of CD-1 mice after injection of free peptides; details: high dose (200 nmol), IV, starting 3 minutes post injection

Row | Compound | Peak Abs. [2] | Peak Em. [2] [nanometers] | further results
1 | CC1(C)C(/C=C/C=C/C=C/C=C2\N(CCCCS(=O)(=O)[O-])c3ccc4ccccc4c3C2(C)C)=[N+](CCCCS(=O)(=O)[O-])c2ccc3ccccc3c21.[Na+] [ICG free dye, Cardiogreen (ICG)] | – | – | Detection in fecal matter [1]: detectable in the fecal matter; Detection in liver, kidney, spleen, or brain [1]: not detectable; Targeting / detection in tumor tissue (U87 flank xenografts): not detected
2 | carboxy-X-rhodamine [ROX (6-ROX)] | 568 nanometers | 595 | –
3 | TOTO-3 | 642 nanometers | 661 | –
4 | CCCCCCCCCCCCc1cc2nc3ccc(O)cc3oc-2cc1=O [2-dodecylresorufm] | 582 nanometers | 595 | –
5 | CCN(CC)c1ccc2c(-c3ccc(S(=O)(=O)NCCCCCC(=O)O)cc3S(=O)(=O)[O-])c3ccc(=[N+](CC)CC)cc-3oc2c1 [rhodamine Red-X] | 572 nanometers | 591 | –
6 | O=C(COc1ccc(/C=C/c2ccc3n2[B-](F)(F)[N+]2=C(c4cccs4)C=CC2=C3)cc1)NCCCCCC(=O)ON1C(=O)CCC1=O [Bodipy 630/650-X] | – | 641 | –
7 | O=S(=O)([O-])c1cc(O)c2ccc3c(S(=O)(=O)[O-])cc(S(=O)(=O)[O-])c4ccc1c2c34.[Na+].[Na+].[Na+] [HPTS (Solvent Green 7)] | 455 nanometers | 510 | –
8 | CCN1c2cc3c(cc2C(C)=CC1(C)C)C(=CC=CC1=[N+](CCCCCC(=O)O)c2ccc(S(=O)(=O)[O-])cc2C1(C)C)C=C(c1ccccc1)O3 [DY-675] | 675 nanometers | 699 | –
9 | Chlorotoxin [KNT-01] | – | – | Activity level after free peptide injection (CD-1 mice): decrease in activity level, somnolence, and prostration
10 | Nitrobenzoxadiazole | 465 nanometers | 510 | –
11 | SYTO 16 | 490 nanometers | 520 | –
12 | CC1(C)C=C(CS(=O)(=O)O)c2cc3c(C(F)(F)F)cc(=O)oc3cc2N1CCCCCC(=O)ON1C(=O)CCC1=O.CCN(CC)CC [Alexa Fluor 430] | – | 540 | –
13 | Fast Blue | 360 nanometers | 440 | –
14 | O=C(O)CCCCCNc1ccc([N+](=O)[O-])c2nonc12 [NBD-X] | 467 nanometers | 538 | –
15 | CN1/C(=C/c2cc[n+](CCC[N+](C)(C)CCC[N+](C)(C)CCC[n+]3ccc(/C=C4/Oc5ccccc5N4C)cc3)cc2)Oc2ccccc21.[I-].[I-].[I-].[I-] [POPO-1] | 434 nanometers | 456 | –
16 | Cc1cc(=O)oc2c(F)c(O)c(F)cc12 [DiFMU (pH 9.0)] | 357 nanometers | 450 | –

Row | Compound | Peak Abs. [2] | Peak Em. [2] [nanometers] | further results
17 | CN1/C(=C/C=C/c2cc[n+](CCC[N+](C)(C)CCC[N+](C)(C)CCC[n+]3ccc(/C=C/C=C4/Oc5ccccc5N4C)cc3)cc2)Oc2ccccc21.[I-].[I-].[I-].[I-] [POPO-3] | 532 nanometers | 573 | –
18 | O=C(O)c1cc2cc(F)c(O)c(F)c2oc1=O [Pacific Blue] | 405 nanometers and 410 nanometers | 455 | –
19 | Cc1c2oc3c(C)c(N)cc(C(=O)N[C@@H]4C(=O)N[C@H](C(C)C)C(=O)N5CCC[C@H]5C(=O)N(C)CC(=O)N(C)[C@@H](C(C)C)C(=O)O[C@@H]4C)c3nc-2c(C(=O)N[C@@H]2C(=O)N[C@H](C(C)C)C(=O)N3CCC[C@H]3C(=O)N(C)CC(=O)N(C)[C@@H](C(C)C)C(=O)O[C@@H]2C)c(N)c1=O [Compound 7-AAD, 7-AAD] | 549 nanometers | 644 | –
20 | Rhod-2 | 551 nanometers | 576 | –
21 | CCN1c2cc3c(cc2C(C)=CC1(C)C)N=c1cc2c(cc1O3)=[N+](CCCC(=O)O)C(C)(C)C=C2CS(=O)(=O)O [ATTO 700] | 699 nanometers | 719 | –
22 | Carboxynaphthofluorescein | 600 nanometers | 674 | –
23 | Phycoerythrin [Phycoerythrin (PE, R-phycoerythrin)] | 567 nanometers | 576 | –
24 | CCCN(CCCN(C)C)c1cc(/C=C2/Sc3ccccc3N2C)c2ccccc2[n+]1-c1ccccc1 [SYBR Green I] | 497 nanometers | 521 | –
25 | CC[N+]1=c2cc3c(cc2CCC1)=Nc1cc2c(cc1O3)N(CCCC(=O)O)C(C)(C)C=C2CS(=O)(=O)[O-] [ATTO 680] | 680 nanometers | 700 | –
26 | O=c1cc(CBr)c2cc3c4c(c2o1)CCCN4CCC3 [CellTracker Violet BMQC] | 415 nanometers | 516 | –
27 | CC[N+]1=c2cc3c(cc2C(CS(=O)(=O)O)=CC1(C)C)=Cc1cc2c(cc1C3(C)C)N(CCCC(=O)O)C(C)(C)CC2C.[O-][Cl+3]([O-])([O-])[O-] (centres unmarked) [ATTO 647] | 644 nanometers | 670 | –
28 | Cc1c(CC(=O)NCCCCCC(=O)O)c(=O)oc2cc(N)ccc12 [AMCA-X] | 353 nanometers | 442 | –
29 | Texas Red | 592 nanometers | 615 | –
30 | O=S(=O)(O)c1cccc2cccc(Nc3ccccc3)c12 [1,8-ANS] | 372 nanometers | 480 | –
31 | O=S(=O)([O-])c1cc(Nc2nc(Nc3ccccc3)nc(N(CCO)CCO)n2)ccc1/C=C/c1ccc(Nc2nc(Nc3ccccc3)nc(N(CCO)CCO)n2)cc1S(=O)(=O)[O-].[Na+].[Na+] [Phorwite AR] | 360 nanometers | 430 | –
32 | CC1CC(C)(C)Nc2c1cc1c(c2S(=O)(=O)[O-])Oc2c(S(=O)(=O)[O-])c3c(cc2=C1c1c(Cl)c(SCC(=O)NCCCCCC(=O)ON2C(=O)CCC2=O)c(Cl)c(Cl)c1C(=O)O)C(C)CC(C)(C)N=3.[H+].[Na+] (centres unmarked) [Alexa Fluor 546] | 561 nanometers | 572 | –
